Data taken from patent US20190053492A1, “SUBSTITUTED PYRIDINE COMPOUNDS AS PESTICIDES” (Bayer CropScience Aktiengesellschaft, priority 2016, published 2019).
Like-named read-outs stand apart in the source and are kept apart here.

How the values were obtained:
Spodoptera frugiperda = Spodoptera frugiperda spray test; type: in vivo; conditions: after 7 days, maize leaf discs
Method in brief: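 Maize leaf discs were sprayed with compound formulated in acetone/DMF and emulsifier-containing water, dried, then infested with Spodoptera frugiperda caterpillars. Percent kill was scored after 7 days, from 100% (all dead) to 0% (none dead).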

[1] = log P by HPLC on reversed-phase column (C 18), EEC Directive 79/831 Annex V.A8; type: physicochemical; conditions: 55° C.; for LOGP_HCOOH: log P (HCOOH); for chromatographic logP: reversed-phase HPLC column (C 18)
Procedure: Temperature: 55° C. […] Called log P (HCOOH) in the table. […] Called log P (neutral) in the table.

Phaedon cochleariae = Phaedon cochleariae spray test; type: in vivo; conditions: after 7 days, Chinese cabbage leaf discs
Procedure: Phaedon cochleariae—Spray Test
Solvent: 78.0 parts by weight of acetone • • 1.5 parts by weight of dimethylformamide
Emulsifier: alkylaryl polyglycol ether
To produce a suitable active ingredient formulation, 1 part by weight of active ingredient is dissolved with the specified parts by weight of solvent and made up with water containing an emulsifier concentration of 1000 ppm until the desired concentration is attained. To produce further test concentrations, the formulation is diluted with emulsifier-containing water.
Discs of Chinese cabbage leaves (Brassica pekinensis) are sprayed with an active ingredient formulation of the desired concentration and, after drying, populated with larvae of the mustard beetle (Phaedon cochleariae).
After 7 days, the efficacy in % is determined. 100% means that all the beetle larvae have been killed; 0% means that no beetle larvae have been killed.

[2] = acidic range at pH 2.7, 0.1% aqueous formic acid and acetonitrile, HPLC on reversed-phase column (C 18)
[3] = acidic range pH 2.7, 0.1% aqueous formic acid and acetonitrile, reversed-phase column (C 18)
[4] = log P, neutral range, HPLC on reversed-phase column (C 18)
[5] = log P (neutral), HPLC reversed-phase column (C 18)

| Structure (SMILES) | LOGP_HCOOH [1, 2] | LOGP_HCOOH [1, 3] | LOGP_NEUTRAL [1, 4] | LOGP_NEUTRAL [1, 5] | chromatographic logP ([1]; pH 2.7, LC-MS acidic range, pH 2.7, 0.1% formic acid/acetonitrile, read-out: log P (acidic) / log P (HCOOH)) | chromatographic logP ([1]; pH 7.8, LC-MS neutral range, pH 7.8, ammonium hydrogencarbonate/acetonitrile, read-out: log P (neutral)) | efficacy (caterpillars killed) (Spodoptera frugiperda; application rate 100 g/ha) [%] | efficacy (caterpillars killed) (Spodoptera frugiperda; application rate 500 g/ha) [%] | efficacy (beetle larvae killed) (Phaedon cochleariae; application rate 100 g/ha) [%] | efficacy (beetle larvae killed) (Phaedon cochleariae; application rate 500 g/ha) [%] | pest or weed control at 500 g/ha (Spodoptera frugiperda; Spodoptera frugiperda, foliar, 168 h, application rate 500 g/ha, read-out: efficacy (caterpillars killed)) [%] | pest or weed control at 100 g/ha (Phaedon cochleariae; Phaedon cochleariae, foliar, 168 h, application rate 100 g/ha, read-out: efficacy (beetle larvae killed)) [%] | pest or weed control at 500 g/ha (Phaedon cochleariae; Phaedon cochleariae, foliar, 168 h, application rate 500 g/ha, read-out: efficacy (beetle larvae killed)) [%] |
| --- | --- | --- | --- | --- | --- | --- | --- | --- | --- | --- | --- | --- | --- |
| COC1(NC(=O)c2cc(-c3ccc(OC(F)(F)F)cc3)cc(NC(=O)C3CC3)n2)CC1 [Example I-140] | 3.58 |  |  |  |  |  | 100 | 100 | 100 | 100 |  |  |  |
| O=C(NCc1ccc(Cl)nc1)c1cc(-c2ccc(C(F)(F)F)cc2)cc(NC(=O)C2CC2)n1 [Example I-011] |  | 3.67 | 3.55 |  |  |  |  | 100 | 100 | 100 |  |  |  |
| CC(C)NC(=O)c1cc(-c2ccc(C(F)(F)F)cc2)cc(NC(=O)C2CC2)n1 [Example I-018] |  | 2.65 | 3.68 |  |  |  | 83 | 100 |  | 100 |  |  |  |
| O=C(NCc1ccc(C(F)(F)F)c(F)c1)c1cc(-c2ccc(C(F)(F)F)cc2)cc(NC(=O)C2CC2)n1 [Example I-064] |  | 4.68 | 4.53 |  |  |  | 100 | 100 |  | 100 |  |  |  |
| N#Cc1ccc(CNC(=O)c2cc(-c3ccc(OC(F)(F)C(F)F)cc3)cc(NC(=O)C3CC3)n2)cc1 [Example I-153] | 3.60 |  | 3.48 |  |  |  | 100 | 100 | 100 | 100 |  |  |  |
| N#Cc1ccc(NC(=O)c2cc(-c3ccc(C(F)(F)F)cc3)cc(NC(=O)C3CC3)n2)cc1 [Example I-019] |  | 4.40 | 4.33 |  |  |  |  | 100 |  | 100 |  |  |  |
| CC(NC(=O)c1cc(-c2ccc(OC(F)(F)F)cc2)cc(NC(=O)C2CC2)n1)c1ccc(C#N)cc1 (racemic) [Example I-158] | 4.17 |  | 4.02 |  |  |  | 100 | 100 | 83 | 100 |  |  |  |
| CCCCNC(=O)c1cc(-c2ccc(C(F)(F)F)cc2)cc(NC(=O)C2CC2)n1 [Example I-037] |  | 4.05 | 3.98 |  |  |  | 83 | 100 |  | 83 |  |  |  |
| O=C(Cc1ccc(Br)cc1)Nc1cc(-c2ccc(OC(F)(F)F)cc2)cc(C(=O)NC2CC2)n1 [Example I-125] | 4.46 |  | 4.20 |  |  |  | 100 | 100 |  | 100 |  |  |  |
| CCCNC(=O)c1cc(-c2ccc(OC(F)(F)F)cc2)cc(NC(=O)C2CC2)n1 [Example I-132] | 3.78 |  |  |  |  |  | 100 | 100 |  | 100 |  |  |  |
| O=C(NC1CC1)c1cc(-c2ccc(I)cc2)cc(NC(=O)C2CC2)n1 [Example I-035] |  | 3.48 | 3.39 |  |  |  |  | 100 |  | 100 |  |  |  |
| Cc1cc(OC(F)(F)F)ccc1-c1cc(NC(=O)C2CC2)nc(C(=O)NCc2ccc(C#N)cc2)c1 [Example I-099] |  | 4.03 | 3.95 |  |  |  | 100 | 100 | 100 | 100 |  |  |  |
| CC(C)C(=O)Nc1cc(-c2ccc(C(F)(F)F)cc2)cc(C(=O)NC(C)c2ccc(C#N)cc2)n1 (stereo not shown) [Example I-087] |  | 4.20 | 4.15 |  |  |  | 100 | 100 |  | 83 |  |  |  |
| N#Cc1ccc(CNC(=O)c2cc(-c3ccc(SC(F)(F)F)cc3)cc(NC(=O)C3CC3)n2)cn1 [Example I-090] |  | 3.79 | 3.72 |  |  |  | 83 | 100 |  | 100 |  |  |  |
| N#Cc1ccc(CNC(=O)c2cc(-c3ccc(CC(F)(F)F)cc3)cc(NC(=O)C3CC3)n2)cc1 [Example I-144] | 3.55 |  | 3.00 |  |  |  | 100 | 100 | 100 | 100 |  |  |  |
| N#CCCCCNC(=O)c1cc(-c2ccc(OC(F)(F)F)cc2)cc(NC(=O)C2CC2)n1 [Example I-157] | 3.38 |  | 3.26 |  |  |  | 100 | 83 |  | 100 |  |  |  |

Second part, led by results:

| LOGP_HCOOH [1, 2] | LOGP_HCOOH [1, 3] | LOGP_NEUTRAL [1, 4] | LOGP_NEUTRAL [1, 5] | chromatographic logP ([1]; pH 2.7, LC-MS acidic range, pH 2.7, 0.1% formic acid/acetonitrile, read-out: log P (acidic) / log P (HCOOH)) | chromatographic logP ([1]; pH 7.8, LC-MS neutral range, pH 7.8, ammonium hydrogencarbonate/acetonitrile, read-out: log P (neutral)) | Structure (SMILES) | efficacy (caterpillars killed) (Spodoptera frugiperda; application rate 100 g/ha) [%] | efficacy (caterpillars killed) (Spodoptera frugiperda; application rate 500 g/ha) [%] | efficacy (beetle larvae killed) (Phaedon cochleariae; application rate 100 g/ha) [%] | efficacy (beetle larvae killed) (Phaedon cochleariae; application rate 500 g/ha) [%] | pest or weed control at 500 g/ha (Spodoptera frugiperda; Spodoptera frugiperda, foliar, 168 h, application rate 500 g/ha, read-out: efficacy (caterpillars killed)) [%] | pest or weed control at 100 g/ha (Phaedon cochleariae; Phaedon cochleariae, foliar, 168 h, application rate 100 g/ha, read-out: efficacy (beetle larvae killed)) [%] | pest or weed control at 500 g/ha (Phaedon cochleariae; Phaedon cochleariae, foliar, 168 h, application rate 500 g/ha, read-out: efficacy (beetle larvae killed)) [%] |
| --- | --- | --- | --- | --- | --- | --- | --- | --- | --- | --- | --- | --- | --- |
| 4.38 |  |  |  |  |  | N#Cc1ccc(CNC(=O)c2cc(-c3ccc(OC(F)(F)C(F)(F)F)cc3)cc(NC(=O)C3CC3)n2)cc1 [Example I-191] |  | 100 |  | 83 |  |  |  |
|  | 2.17 |  | 3.33 |  |  | O=C(NCc1ccncc1)c1cc(-c2ccc(C(F)(F)C(F)(F)F)c(F)c2)cc(NC(=O)C2CC2)n1 [Example I-277] | 100 | 100 |  | 83 |  |  |  |
|  | 3.75 |  | 3.73 |  |  | N#Cc1ccc(CNC(=O)c2cc(-c3ccc(Br)c(F)c3)cc(NC(=O)C3CC3)n2)cc1 [Example I-262] | 100 | 100 | 100 | 100 |  |  |  |
|  | 4.37 |  | 4.32 |  |  | O=C(NCCC(F)(F)F)c1cc(-c2ccc(C(F)(F)C(F)(F)F)c(F)c2)cc(NC(=O)C2CC2)n1 [Example I-246] | 100 | 100 | 83 | 100 |  |  |  |
| 3.25 |  | 3.22 |  | 3.25 | 3.22 | N#Cc1ccc(CNC(=O)c2cc(-c3ccc(C(F)(F)F)cn3)cc(NC(=O)C3CC3)n2)cc1 [Example I-174, N-(4-Cyanobenzyl)-6′-[(cyclopropylcarbonyl)amino]-5-(trifluoromethyl)-2,4′-bipyridine-2′-carboxamide] |  |  |  |  | 100 | 100 | 100 |
|  | 4.55 |  |  |  |  | N#Cc1cc(F)c(CNC(=O)c2cc(-c3ccc(C(F)(F)C(F)(F)F)c(F)c3)cc(NC(=O)C3CC3)n2)c(F)c1 [Example I-248] | 100 | 100 | 100 | 100 |  |  |  |
|  | 4.05 |  |  |  |  | N#Cc1ccc(CNC(=O)c2cc(-c3c(Cl)cc(C(F)(F)C(F)(F)F)cc3Cl)cc(NC(=O)C3CC3)n2)cc1 [Example I-268] | 100 | 100 | 83 | 83 |  |  |  |
|  | 4.45 |  | 4.38 |  |  | N#Cc1ccc(CNC(=O)c2cc(-c3ccc(C(F)(F)C(F)(F)F)c(F)c3)cc(NC(=O)C3CC3)n2)c(F)c1 [Example I-251] | 100 | 100 | 83 | 100 |  |  |  |
|  | 4.10 |  | 4.04 |  |  | O=C(NCc1ccc([N+](=O)[O-])s1)c1cc(-c2ccc(OC(F)(F)F)cc2)cc(NC(=O)C2CC2)n1 [Example I-240] | 83 | 100 |  | 100 |  |  |  |
|  | 4.23 |  |  |  |  | N#Cc1ccc(CNC(=O)c2cc(-c3cc(F)c(C(F)(F)C(F)(F)F)c(F)c3)cc(NC(=O)C3CC3)n2)cc1 [Example I-271] |  | 100 |  | 83 |  |  |  |
|  |  | 4.62 |  |  |  | N#Cc1ccc(CNC(=O)c2cc(-c3ccc(OC(F)(F)F)cc3)cc(NC(=O)C3(Cl)CC3)n2)cc1 [Example I-205] | 100 | 100 |  | 100 |  |  |  |
